From patent publication US9518052B2, “Pyrazolopyridines and pyrazolopyrimidines” (Pfizer Inc., priority 2014, dated 2016)
Counter-ions that a name gives are not always drawn.

Assays:
Type in all cases: biochemical
Details in all cases: Caliper assay at 1 mM ATP
JAK1 = JAK1 (Homo sapiens (Human), UniProt P23458); assay: JAK Caliper Enzyme Assay at 1 mM ATP (JAK1)
Procedure: (§1) JAK Caliper Enzyme Assay at 1 mM ATP
(§2) Test article was solubilized in dimethyl sulfoxide (DMSO) to a stock concentration of 30 mM. An 11-point half log dilution series was created in DMSO with a top concentration of 600 μM. […] The compound plates were diluted 1 to 60 resulting in a top final assay compound concentration of 10 μM and a 2% DMSO concentration.
(§3) Test article and assay controls were added to a 384-well plate. Reaction mixtures contained 20 mM HEPES, pH 7.4, 10 mM magnesium chloride, 0.01% bovine serum albumin (BSA), 0.0005% Tween 20, 1 mM ATP and 1 μM peptide substrate. […] Enzyme concentrations and incubation times were optimized for each new enzyme preps and were modified slightly over time to ensure 20%-30% phosphorylation. The assays were stopped with a final concentration of 10 mM EDTA, 0.1% Coating Reagent and 100 mM HEPES, pH=7.4. The assay plates were placed on a Caliper Life Science Lab Chip 3000 (LC3000) instrument, and each well was sampled using appropriate separation conditions to measure the unphosphorylated and phosphorylated peptide.

JAK2 = JAK2 (Homo sapiens (Human), UniProt O60674); assay: JAK Caliper Enzyme Assay at 1 mM ATP (JAK2)
Procedure: as §1, §2, §3

JAK3 = JAK3 (Homo sapiens (Human), UniProt P52333); assay: JAK Caliper Enzyme Assay at 1 mM ATP (JAK3)
Procedure: as §1, §2, §3

TYK2 = TYK2 (Homo sapiens (Human), UniProt P29597); assay: JAK Caliper Enzyme Assay at 1 mM ATP (TYK2)
Procedure: as §1, §2, §3

Sequence of JAK1 (P23458 whole entry, species assumed): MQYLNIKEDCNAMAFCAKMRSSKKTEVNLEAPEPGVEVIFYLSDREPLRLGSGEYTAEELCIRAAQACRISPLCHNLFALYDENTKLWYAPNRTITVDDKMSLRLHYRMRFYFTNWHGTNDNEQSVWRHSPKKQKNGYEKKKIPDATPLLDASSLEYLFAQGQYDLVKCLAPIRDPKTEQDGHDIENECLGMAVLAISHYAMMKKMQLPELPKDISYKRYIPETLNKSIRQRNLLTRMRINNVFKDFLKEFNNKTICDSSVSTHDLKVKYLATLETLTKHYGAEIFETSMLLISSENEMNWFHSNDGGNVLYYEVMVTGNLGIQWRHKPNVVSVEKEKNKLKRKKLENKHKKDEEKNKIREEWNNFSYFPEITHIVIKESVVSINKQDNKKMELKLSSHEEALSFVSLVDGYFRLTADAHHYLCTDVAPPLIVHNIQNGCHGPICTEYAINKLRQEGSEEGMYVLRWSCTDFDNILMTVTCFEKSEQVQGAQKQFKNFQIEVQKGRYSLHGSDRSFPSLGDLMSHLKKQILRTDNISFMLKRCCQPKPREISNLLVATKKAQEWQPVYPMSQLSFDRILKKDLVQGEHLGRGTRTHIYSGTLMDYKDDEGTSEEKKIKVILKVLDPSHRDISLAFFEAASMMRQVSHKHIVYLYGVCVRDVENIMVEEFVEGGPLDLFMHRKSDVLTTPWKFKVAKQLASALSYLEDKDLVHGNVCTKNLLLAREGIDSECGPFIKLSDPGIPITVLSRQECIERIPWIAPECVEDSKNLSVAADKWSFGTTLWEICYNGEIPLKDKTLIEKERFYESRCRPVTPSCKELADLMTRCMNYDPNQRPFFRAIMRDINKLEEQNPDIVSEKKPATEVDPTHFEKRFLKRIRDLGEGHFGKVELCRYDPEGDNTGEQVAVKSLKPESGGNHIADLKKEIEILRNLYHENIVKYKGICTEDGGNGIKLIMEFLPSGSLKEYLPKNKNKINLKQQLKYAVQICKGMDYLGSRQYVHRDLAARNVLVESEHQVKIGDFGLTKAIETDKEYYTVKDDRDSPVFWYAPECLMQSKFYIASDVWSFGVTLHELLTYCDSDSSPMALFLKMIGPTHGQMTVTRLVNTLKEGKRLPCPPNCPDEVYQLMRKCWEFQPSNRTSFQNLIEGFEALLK
Sequence of JAK3 (P52333 whole entry, species assumed): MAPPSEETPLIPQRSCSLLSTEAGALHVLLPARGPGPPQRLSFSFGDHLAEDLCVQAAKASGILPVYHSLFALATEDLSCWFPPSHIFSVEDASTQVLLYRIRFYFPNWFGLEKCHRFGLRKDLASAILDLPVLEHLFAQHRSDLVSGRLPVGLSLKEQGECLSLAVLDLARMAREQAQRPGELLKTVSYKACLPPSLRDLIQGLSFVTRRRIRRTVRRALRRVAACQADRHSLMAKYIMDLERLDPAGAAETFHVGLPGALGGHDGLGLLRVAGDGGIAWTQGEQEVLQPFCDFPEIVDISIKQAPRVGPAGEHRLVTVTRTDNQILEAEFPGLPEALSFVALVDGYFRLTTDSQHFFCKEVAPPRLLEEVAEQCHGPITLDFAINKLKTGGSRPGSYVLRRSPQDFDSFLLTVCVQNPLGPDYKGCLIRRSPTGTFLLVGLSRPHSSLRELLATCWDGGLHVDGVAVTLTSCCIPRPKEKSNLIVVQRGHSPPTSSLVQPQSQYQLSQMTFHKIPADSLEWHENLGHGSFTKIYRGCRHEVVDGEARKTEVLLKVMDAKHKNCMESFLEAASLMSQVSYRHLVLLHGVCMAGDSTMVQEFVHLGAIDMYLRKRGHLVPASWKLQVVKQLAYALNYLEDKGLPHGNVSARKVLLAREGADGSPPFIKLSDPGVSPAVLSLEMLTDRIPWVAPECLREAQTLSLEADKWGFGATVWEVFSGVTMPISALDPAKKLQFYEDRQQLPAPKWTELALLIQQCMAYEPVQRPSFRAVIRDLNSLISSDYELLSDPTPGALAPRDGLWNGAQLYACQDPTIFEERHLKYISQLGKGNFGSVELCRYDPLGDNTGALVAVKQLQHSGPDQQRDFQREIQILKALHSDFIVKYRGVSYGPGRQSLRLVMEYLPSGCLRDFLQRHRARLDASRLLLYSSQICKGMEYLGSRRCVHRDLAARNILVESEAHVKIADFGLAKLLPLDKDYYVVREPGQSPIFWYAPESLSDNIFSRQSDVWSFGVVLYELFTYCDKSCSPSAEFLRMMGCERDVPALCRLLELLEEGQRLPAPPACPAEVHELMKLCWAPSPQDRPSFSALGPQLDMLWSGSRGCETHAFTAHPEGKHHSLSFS
Sequence of TYK2 (P29597 whole entry, species assumed): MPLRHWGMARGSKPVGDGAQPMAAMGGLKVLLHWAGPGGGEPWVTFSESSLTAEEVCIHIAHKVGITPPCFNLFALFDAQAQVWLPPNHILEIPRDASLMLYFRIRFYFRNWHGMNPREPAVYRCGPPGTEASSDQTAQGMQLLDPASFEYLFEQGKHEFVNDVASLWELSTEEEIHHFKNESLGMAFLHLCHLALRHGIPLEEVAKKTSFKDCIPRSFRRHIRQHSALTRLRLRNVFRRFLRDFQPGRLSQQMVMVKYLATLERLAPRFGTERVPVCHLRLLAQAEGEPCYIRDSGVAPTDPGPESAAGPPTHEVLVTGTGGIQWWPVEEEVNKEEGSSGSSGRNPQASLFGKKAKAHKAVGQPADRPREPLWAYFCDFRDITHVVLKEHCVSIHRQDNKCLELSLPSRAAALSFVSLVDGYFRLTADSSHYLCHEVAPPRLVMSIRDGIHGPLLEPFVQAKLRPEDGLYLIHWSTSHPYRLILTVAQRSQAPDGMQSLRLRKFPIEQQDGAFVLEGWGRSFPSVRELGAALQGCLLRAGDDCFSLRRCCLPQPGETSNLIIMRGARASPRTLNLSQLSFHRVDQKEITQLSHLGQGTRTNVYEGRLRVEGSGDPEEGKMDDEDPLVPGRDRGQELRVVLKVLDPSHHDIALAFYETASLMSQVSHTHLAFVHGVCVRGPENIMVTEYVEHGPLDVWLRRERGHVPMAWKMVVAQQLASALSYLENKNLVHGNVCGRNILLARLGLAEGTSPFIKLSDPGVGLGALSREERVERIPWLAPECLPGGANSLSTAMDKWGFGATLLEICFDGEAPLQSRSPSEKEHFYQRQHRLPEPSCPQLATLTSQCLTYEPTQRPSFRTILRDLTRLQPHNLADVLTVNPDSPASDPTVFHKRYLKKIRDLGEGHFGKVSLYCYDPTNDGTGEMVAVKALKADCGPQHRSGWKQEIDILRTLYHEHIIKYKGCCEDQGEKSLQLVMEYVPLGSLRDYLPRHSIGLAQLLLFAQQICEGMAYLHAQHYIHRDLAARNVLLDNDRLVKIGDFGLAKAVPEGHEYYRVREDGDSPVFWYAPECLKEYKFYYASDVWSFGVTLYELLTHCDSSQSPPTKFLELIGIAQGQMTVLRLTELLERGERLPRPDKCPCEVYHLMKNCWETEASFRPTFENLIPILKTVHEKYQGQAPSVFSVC
Sequence of JAK2 (O60674 whole entry, species assumed): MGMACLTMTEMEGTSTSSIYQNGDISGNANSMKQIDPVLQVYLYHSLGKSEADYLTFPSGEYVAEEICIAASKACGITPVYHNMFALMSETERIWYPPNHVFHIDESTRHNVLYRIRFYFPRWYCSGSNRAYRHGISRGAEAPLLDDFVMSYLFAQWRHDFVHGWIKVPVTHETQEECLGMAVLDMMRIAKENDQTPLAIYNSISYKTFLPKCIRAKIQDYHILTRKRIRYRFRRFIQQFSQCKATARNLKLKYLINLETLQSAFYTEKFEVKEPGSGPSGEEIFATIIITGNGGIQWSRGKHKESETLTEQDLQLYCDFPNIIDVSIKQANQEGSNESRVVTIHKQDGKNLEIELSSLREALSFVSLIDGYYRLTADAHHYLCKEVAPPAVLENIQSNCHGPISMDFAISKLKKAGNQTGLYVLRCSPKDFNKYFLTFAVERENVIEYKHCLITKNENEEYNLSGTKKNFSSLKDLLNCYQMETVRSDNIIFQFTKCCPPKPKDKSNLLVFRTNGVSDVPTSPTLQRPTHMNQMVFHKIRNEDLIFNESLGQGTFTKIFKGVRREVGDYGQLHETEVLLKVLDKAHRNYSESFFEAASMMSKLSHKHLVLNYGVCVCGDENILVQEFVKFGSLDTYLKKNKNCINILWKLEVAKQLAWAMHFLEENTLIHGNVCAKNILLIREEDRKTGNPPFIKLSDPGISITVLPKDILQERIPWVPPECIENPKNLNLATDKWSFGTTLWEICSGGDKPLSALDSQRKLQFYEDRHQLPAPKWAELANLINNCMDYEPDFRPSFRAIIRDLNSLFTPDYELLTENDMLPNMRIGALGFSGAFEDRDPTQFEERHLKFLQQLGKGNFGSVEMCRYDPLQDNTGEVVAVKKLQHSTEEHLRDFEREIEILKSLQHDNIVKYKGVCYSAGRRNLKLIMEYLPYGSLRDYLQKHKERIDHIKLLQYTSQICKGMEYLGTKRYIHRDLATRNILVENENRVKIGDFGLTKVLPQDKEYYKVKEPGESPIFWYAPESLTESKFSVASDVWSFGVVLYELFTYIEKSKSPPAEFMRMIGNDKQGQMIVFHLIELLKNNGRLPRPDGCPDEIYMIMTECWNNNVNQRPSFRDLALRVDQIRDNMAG

CCN(c1ccccc1CNc1nc(-c2cc(F)c(O)cc2CC(F)(F)F)cc2[nH]nc(C(=O)NC)c12)S(=O)(=O)CC [Example 1, 4-({2-[Ethyl(ethylsulfonyl)amino]benzyl}amino)-6-[5-fluoro-4-hydroxy-2-(2,2,2-trifluoroethyl)phenyl]-N-methyl-1H-pyrazolo[4,3-c]pyridine-3-carboxamide]
IC50 (JAK1): 8 nM
IC50 (JAK2): 38.1 nM
IC50 (JAK3): 177 nM
IC50 (TYK2): 36.5 nM

CCc1cc(O)c(F)cc1-c1cc2[nH]nc(C(=O)NC)c2c(NCc2ccccc2N(CC)S(=O)(=O)CC)n1 [Example 2, 4-({2-[ethyl(ethylsulfonyl)-amino]benzyl}amino)-6-(2-ethyl-5-fluoro-4-hydroxyphenyl)-N-methyl-1H-pyrazolo[4,3-c]pyridine-3-carboxamide]
IC50 (JAK1): 3.4 nM
IC50 (JAK2): 17 nM
IC50 (JAK3): 84.5 nM
IC50 (TYK2): 12.1 nM

CCc1cc(O)c(F)cc1-c1cc2[nH]nc(C(=O)NC)c2c(NCc2ccccc2N(C)S(=O)(=O)CC)n1 [Example 3, 6-(2-ethyl-5-fluoro-4-hydroxy-phenyl)-4-({2-[(ethylsulfonyl)-(methyl)amino]benzyl}amino)-N-methyl-1H-pyrazolo[4,3-c]pyridine-3-carboxamide]
IC50 (JAK1): 1.9 nM
IC50 (JAK2): 9.6 nM
IC50 (JAK3): 47.5 nM
IC50 (TYK2): 6.8 nM

CCc1cc(O)c(F)cc1-c1cc2[nH]nc(C(=O)NC)c2c(NCC(C)C)n1 [Example 5, 6-(2-ethyl-5-fluoro-4-hydroxyphenyl)-N-methyl-4-[(2-methylpropyl)amino]-1H-pyrazolo[4,3-c]pyridine-3-carboxamide]
IC50 (JAK1): 2.1 nM
IC50 (JAK2): 7.5 nM
IC50 (JAK3): 31.9 nM
IC50 (TYK2): 7 nM

CCc1cc(O)c(F)cc1-c1cc2[nH]nc(C(=O)NC)c2c(NCc2cc(Cl)ccc2N(C)S(C)(=O)=O)n1 [Example 6, 4-({5-chloro-2-[methyl(methyl-sulfonyl)amino]benzyl}amino)-6-(2-ethyl-5-fluoro-4-hydroxy-phenyl)-N-methyl-1H-pyrazolo[4,3-c]pyridine-3-carboxamide]
IC50 (JAK1): 3.1 nM
IC50 (JAK2): 15.8 nM
IC50 (JAK3): 84.9 nM
IC50 (TYK2): 15.3 nM

CCc1cc(O)c(F)cc1-c1cc2[nH]nc(C(=O)NC)c2c(NCc2cc(F)ccc2N(C)S(C)(=O)=O)n1 [Example 7, 6-(2-ethyl-5-fluoro-4-hydroxyphenyl)-4-({5-fluoro-2-[methyl(methyl-sulfonyl)amino]benzyl}amino)-N-methyl-1H-pyrazolo[4,3-c]pyridine-3-carboxamide]
IC50 (JAK1): 1.7 nM
IC50 (JAK2): 9.2 nM
IC50 (JAK3): 49 nM
IC50 (TYK2): 6.5 nM

CCc1cc(O)c(F)cc1-c1cc2[nH]nc(C(=O)NC)c2c(NCc2c(F)cccc2N(C)S(C)(=O)=O)n1 [Example 8, 6-(2-ethyl-5-fluoro-4-hydroxyphenyl)-4-({2-fluoro-6-[methyl(methyl-sulfonyl)amino]benzyl}amino)-N-methyl-1H-pyrazolo[4,3-c]pyridine-3-carboxamide]
IC50 (JAK1): 1.7 nM
IC50 (JAK2): 7.5 nM
IC50 (JAK3): 33.8 nM
IC50 (TYK2): 5.7 nM

CNC(=O)c1n[nH]c2cc(-c3cc(F)c(O)cc3CC(F)(F)F)nc(NCc3cc(C)ccc3N(C)S(C)(=O)=O)c12 [Example 11, 6-[5-fluoro-4-hydroxy-2-(2,2,2-trifluoroethyl)phenyl]-N-methyl-4-({5-methyl-2-[methyl(methyl-sulfonyl)amino]benzyl}amino)-1H-pyrazolo[4,3-c]pyridine-3-carboxamide]
IC50 (JAK1): 8.7 nM
IC50 (JAK2): 36.9 nM
IC50 (JAK3): 207 nM
IC50 (TYK2): 229 nM

CNC(=O)c1n[nH]c2cc(-c3cc(F)c(O)cc3CC(F)(F)F)nc(NCc3cc(Cl)ccc3N(C)S(C)(=O)=O)c12 [Example 15, 4-({5-chloro-2-[methyl(methyl-sulfonyl)amino]benzyl}amino)-6-[5-fluoro-4-hydroxy-2-(2,2,2-trifluoroethyl)phenyl]-N-methyl-1H-pyrazolo[4,3-c]pyridine-3-carboxamide]
IC50 (JAK1): 13.6 nM
IC50 (JAK2): 55 nM
IC50 (JAK3): 342 nM
IC50 (TYK2): 618 nM

CNC(=O)c1n[nH]c2cc(-c3cc(F)c(O)cc3CC(F)(F)F)nc(NCC(C)C)c12 [Example 16, 6-[5-fluoro-4-hydroxy-2-(2,2,2-trifluoroethyl)phenyl]-N-methyl-4-[(2-methylpropyl)amino]-1H-pyrazolo[4,3-c]pyridine-3-carboxamide]
IC50 (JAK1): 6.3 nM
IC50 (JAK2): 23 nM
IC50 (JAK3): 131 nM
IC50 (TYK2): 66 nM

CNC(=O)c1n[nH]c2cc(-c3cc(F)c(O)cc3CC(F)(F)F)nc(NCC3CCCC3)c12 [Example 17, 4-[(cyclopentylmethyl)-amino]-6-[5-fluoro-4-hydroxy-2-(2,2,2-trifluoro-ethyl)phenyl]-N-methyl-1H-pyrazolo[4,3-c]pyridine-3-carboxamide]
IC50 (JAK1): 18.5 nM
IC50 (JAK2): 52.9 nM
IC50 (JAK3): 256 nM
IC50 (TYK2): 142 nM

CCc1cc(O)c(F)cc1-c1cc2[nH]nc(C(=O)NC)c2c(NCc2ccccc2N(C)S(C)(=O)=O)n1 [Example 19, 6-(2-ethyl-5-fluoro-4-hydroxy-phenyl)-N-methyl-4-({2-[methyl(methyl-sulfonyl)amino]benzyl}amino)-1H-pyrazolo[4,3-c]pyridine-3-carboxamide]
IC50 (JAK1): 0.9 nM
IC50 (JAK2): 5.9 nM
IC50 (JAK3): 30.9 nM
IC50 (TYK2): 4.8 nM

CCc1cc(O)c(F)cc1-c1cc2[nH]nc(C(N)=O)c2c(NCc2ccc(O)cc2N(C)S(C)(=O)=O)n1 [Example 30, 6-(2-Ethyl-5-fluoro-4-hydroxyphenyl)-4-({4-hydroxy-2-[methyl(methylsulfonyl)amino]benzyl}amino)-1H-pyrazolo[4,3-c]pyridine-3-carboxamide]
IC50 (JAK1): 1 nM
IC50 (JAK2): 5.8 nM
IC50 (JAK3): 23.3 nM
IC50 (TYK2): 29 nM

CCc1cc(O)c(F)cc1-c1cc2[nH]nc(C(=O)NC)c2c(NCc2cc(O)ccc2N(C)S(C)(=O)=O)n1 [Example 31, 6-(2-Ethyl-5-fluoro-4-hydroxyphenyl)-4-({5-hydroxy-2-[methyl(methylsulfonyl)amino]benzyl}amino)-N-methyl-1H-pyrazolo[4,3-c]pyridine-3-carboxamide]
IC50 (JAK1): 1.3 nM
IC50 (JAK2): 7 nM
IC50 (JAK3): 33 nM
IC50 (TYK2): 4.6 nM

CNC(=O)c1n[nH]c2cc(-c3cc(F)c(O)cc3CC(F)(F)F)nc(NCc3ccccc3N(C)S(=O)(=O)c3cccc(O)c3)c12 [Example 32, 6-[5-Fluoro-4-hydroxy-2-(2,2,2-trifluoroethyl)phenyl]-4-[(2-{[(3-hydroxyphenyl)sulfonyl](methyl)amino}benzyl)amino]-N-methyl-1H-pyrazolo[4,3-c]pyridine-3-carboxamide]
IC50 (JAK1): 60.4 nM
IC50 (JAK2): 277 nM
IC50 (JAK3): 839 nM
IC50 (TYK2): 373 nM

CCN(c1ccc(O)cc1CNc1nc(-c2cc(F)c(O)cc2CC(F)(F)F)cc2[nH]nc(C(=O)NC)c12)S(C)(=O)=O [Example 34, 4-({2-[ethyl(methyl-sulfonyl)amino]-5-hydroxybenzyl}amino)-6-[5-fluoro-4-hydroxy-2-(2,2,2-trifluoroethyl)phenyl]-N-methyl-1H-pyrazolo[4,3-c]pyridine-3-carboxamide]
IC50 (JAK1): 5.1 nM
IC50 (JAK2): 27.8 nM
IC50 (JAK3): 98.4 nM
IC50 (TYK2): 24.6 nM

CCN(c1ccc(O)cc1CNc1nc(-c2cc(F)c(O)cc2CC(F)(F)F)cc2[nH]nc(C(=O)NC)c12)S(=O)(=O)c1ccccc1 [Example 36, 4-({2-[ethyl(phenyl-sulfonyl)amino]-5-hydroxybenzyl}amino)-6-[5-fluoro-4-hydroxy-2-(2,2,2-trifluoroethyl)phenyl]-N-methyl-1H-pyrazolo[4,3-c]pyridine-3-carboxamide]
IC50 (JAK1): 75 nM
IC50 (JAK2): 401 nM
IC50 (JAK3): 1230 nM
IC50 (TYK2): 364 nM

CCc1cc(O)c(F)cc1-c1cc2[nH]nc(C(=O)NC)c2c(N[C@H](C)c2ccccc2N(C)S(C)(=O)=O)n1 [Example 38, 6-(2-Ethyl-5-fluoro-4-hydroxyphenyl)-N-methyl-4-{[(1R)-1-{2-[methyl(methylsulfonyl)amino]phenyl}ethyl]amino}-1H-pyrazolo[4,3-c]pyridine-3-carboxamide]
IC50 (JAK1): 4 nM
IC50 (JAK2): 25 nM
IC50 (JAK3): 122 nM
IC50 (TYK2): 17.8 nM

CCc1cc(O)ccc1-c1cc2[nH]ncc2c(NCc2c(C)cccc2N(C)S(C)(=O)=O)n1 [Example 127, N-[2-({[6-(2-ethyl-4-hydroxyphenyl)-1H-pyrazolo[4,3-c]pyridin-4-yl]amino}methyl)-3-methylphenyl]-N-methylmethanesulfonamide diethylamine salt]
IC50 (JAK1): 6 nM
IC50 (JAK2): 14.9 nM
IC50 (TYK2): 625 nM

CCc1cc(O)ccc1-c1cc2[nH]ncc2c(N2CCC(OC)CC2)n1 [Example 128, 3-ethyl-4-[4-(4-methoxypiperidin-1-yl)-1H-pyrazolo[4,3-c]pyridin-6-yl]phenol diethylamine salt]
IC50 (JAK1): 3.6 nM
IC50 (JAK2): 12.6 nM
IC50 (TYK2): 514 nM

N-ethyl-N-[2-({[6-(2-ethyl-5-fluoro-4-hydroxyphenyl)-1H-pyrazolo[4,3-c]pyridin-4-yl]amino}methyl)phenyl]ethanesulfonamide [Example 138]
IC50 (JAK2): 2.6 nM
IC50 (JAK3): 14.2 nM
IC50 (TYK2): 4.8 nM
